Assay results taken from US9629883B2, “Anticaries compositions and probiotics/prebiotics” (CENTRO SUPERIOR DE INVESTIGACIÓN EN SALUD PÚBLICA (CSISP), priority 2010, dated 2017).
Bridges are numbered along the chain shown (N, C = ends). Where no end group is shown, it is not given here.

Legend:
S. mutans = assay: Growth curves (optical density) of S. mutans in liquid BHI culture; format: cell-based, Streptococcus mutans
Method: Subsequently, 50-, 100- and 150-μl volumes of these two fractions, 3-10 kD and 0-3 kD, respectively, were added to a liquid culture of S. mutans and to a liquid culture of S. sobrinus, and the optical density was measured in a 48-well Fluostar luminometer every half-hour, with each treatment in triplicate, for 12-19 hours. […]
In order to corroborate that the peptides identified are those responsible for the inhibitory activity against cariogenic bacteria, the S12E (bacteriocins of bacterial origin) and T5A (peptide of human origin with a structure similar to that of defensins) peptides were chemically synthesised, obtaining approximately 4 mg of each of said peptides with a purity greater than 80%. They were totally re-suspended in 0.1% trichloroacetic acid (TCA) and the experiments designed to test the inhibition of liquid cultures of S. mutans by said chemically-synthesised compounds were performed. […]

S. sobrinus = assay: Growth curves (optical density) of S. sobrinus in liquid BHI culture; format: cell-based, Streptococcus sobrinus; conditions: chemically synthesised peptide, purity greater than 95%, re-suspended in ultrapure water, FIG. 6B
Method: Subsequently, […], respectively, were added to a liquid culture of S. mutans and to a liquid culture of S. sobrinus, and the optical density was measured in a 48-well Fluostar luminometer every half-hour, with each treatment in triplicate, for 12-19 hours.

Substance	inhibitory effect on liquid cultures of S. mutans (S. mutans; chemically synthesised peptide, first synthesis without disulfide bridge)	inhibition of the growth of S. mutans at maximum peptide concentration (S. mutans; synthesised peptide with disulfide bridge between cysteines 3 and 12, 80 μg)	inhibition of the growth of S. mutans (S. mutans; synthesised peptide with disulfide bridge between cysteines 3 and 12, different concentrations, FIG. 7)	inhibitory activity against cultures of S. mutans (S. mutans; chemically synthesised peptide, purity greater than 80%, re-suspended in 0.1% TCA, FIG. 5)	inhibitory effect on S. mutans (S. mutans; chemically synthesised peptide, purity greater than 95%, re-suspended in ultrapure water, FIG. 6A)	inhibitory effect on S. sobrinus (S. sobrinus)
T5A peptide: chemically synthesised defensin-type peptide of human origin, 26 amino acids; active form has disulfide bridge between cysteines 3 and 12 (MSCKKESLGSKCNYILLWYQPTESPH; disulfide 3-12; listed as Homo sapiens)	no inhibitory effect	total inhibition of the growth	capable of inhibiting the growth			
S12E peptide: chemically synthesised bacteriocin-type anti-microbial peptide of bacterial origin, 39 amino acids, from S12E fosmid (MPFEAVGEARLAARTSRPGDRGPGNRAEESPDSAEQGGG; Streptococcus species)				inhibitory activity against cultures of S. mutans was confirmed	dose-dependent inhibitory effect	dose-dependent inhibitory effect
